These results are taken from patent publication US9174974B2, “Macrocyclic factor VIIa inhibitors” (BRISTOL-MYERS SQUIBB COMPANY, priority 2012, dated 2015).

As a reminder, the Ki is a dissociation constant, usually derived from enzyme kinetics or from competition with a known ligand.

One test addresses human FVIIa (Homo sapiens (Human), UniProt P08709). Kind of test: FVIIa Ki (37° C.), FVIIa-Xase assay. It counts as biochemical. The following applies: for Ki: read-out: FVIIa Ki, nM 37° C.; for Ki(HK1)/Ki(FVIIa): selectivity ratio, tissue kallikrein (HK1) vs FVIIa.
A further test concerns the target tissue kallikrein (HK1) (Homo sapiens (Human), UniProt P06870). Kind of test: Tissue kallikrein-1 (HK1) Ki, fluorogenic substrate assay. It counts as biochemical. The following applies: 37° C.

human FVIIa, sequence (P08709 61-212): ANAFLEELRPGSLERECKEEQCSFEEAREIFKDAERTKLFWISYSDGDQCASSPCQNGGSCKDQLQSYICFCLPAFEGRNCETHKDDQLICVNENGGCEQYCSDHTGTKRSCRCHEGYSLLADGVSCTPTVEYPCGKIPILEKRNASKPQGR
human FVIIa, sequence (P08709 213-466): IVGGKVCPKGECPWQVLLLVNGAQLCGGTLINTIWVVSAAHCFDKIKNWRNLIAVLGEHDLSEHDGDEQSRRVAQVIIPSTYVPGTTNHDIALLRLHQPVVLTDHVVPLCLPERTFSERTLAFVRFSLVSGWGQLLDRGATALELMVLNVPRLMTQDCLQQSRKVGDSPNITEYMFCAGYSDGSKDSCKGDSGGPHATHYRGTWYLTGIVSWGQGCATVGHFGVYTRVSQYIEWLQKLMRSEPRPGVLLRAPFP
human FVIIa, sequence (P13726 33-295 partner): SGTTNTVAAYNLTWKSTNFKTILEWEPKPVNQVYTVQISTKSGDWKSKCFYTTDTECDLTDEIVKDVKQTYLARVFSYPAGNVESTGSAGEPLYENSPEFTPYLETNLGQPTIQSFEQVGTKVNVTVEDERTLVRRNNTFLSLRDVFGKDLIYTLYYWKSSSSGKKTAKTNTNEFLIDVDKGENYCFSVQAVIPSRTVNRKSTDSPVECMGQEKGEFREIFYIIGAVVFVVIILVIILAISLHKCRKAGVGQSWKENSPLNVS
tissue kallikrein (HK1), sequence (P06870 25-262): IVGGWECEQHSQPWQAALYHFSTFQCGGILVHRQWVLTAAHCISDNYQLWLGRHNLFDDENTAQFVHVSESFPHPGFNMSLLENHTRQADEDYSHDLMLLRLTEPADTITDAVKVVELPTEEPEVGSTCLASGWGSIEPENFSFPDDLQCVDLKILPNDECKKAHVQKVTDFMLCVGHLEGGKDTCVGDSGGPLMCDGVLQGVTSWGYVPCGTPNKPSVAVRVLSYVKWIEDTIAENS

Take `Cc1cc2ccc1[C@@H](C)COC(=O)Nc1cc(F)c(OC[C@H](O)C3CC3)c(c1)CN(C)C(=O)[C@@H]2Nc1ccc2c(N)nccc2c1.O=C(O)C(F)(F)F` (stereo in doubt) [Example 21, (2R,15R)-2-[(1-Aminoisoquinolin-6-yl)amino]-7-[(2S)-2-cyclopropyl-2-hydroxyethoxy]-8-fluoro-4,15,20-trimethyl-13-oxa-4,11-diazatricyclo[14.2.2.16,10]henicosa-1(18),6,8,10 (21),16,19-hexaene-3,12-dione; trifluoroacetic acid]: at human FVIIa, the inhibitory constant (Ki) was determined as 0.34 nM and the “Ki(HK1)/Ki(FVIIa)” value was found to be 1618. This compound came in with a Ki at tissue kallikrein (HK1) of 550 nM.

For `Cc1cc2ccc1[C@@H](C)COC(=O)Nc1ccc(S(=O)(=O)C(C)(C)C)c(c1)CN(C)C(=O)[C@@H]2Nc1ccc2c(N)nccc2c1.O=C(O)C(F)(F)F` (stereo in doubt) [Example 22, (15R)-2-[(1-Aminoisoquinolin-6-yl)amino]-4,15,17-trimethyl-7-(2-methylpropane-2-sulfonyl)-13-oxa-4,11-diazatricyclo[14.2.2.1^6,10]henicosa-1(18),6,8,10 (21),16,19-hexaene-3,12-dione; trifluoroacetic acid], at human FVIIa, the inhibitory constant (Ki) is 0.31 nM and the “Ki(HK1)/Ki(FVIIa)” value was determined as 2516. At tissue kallikrein (HK1), this compound displayed an inhibition constant Ki of 780 nM.

On to `CC(C)S(=O)(=O)c1ccc2cc1CN(C)C(=O)[C@H](Nc1cc(F)c3c(N)nccc3c1)c1ccc(cc1)CCOC(=O)N2` [Comparator 1, reference compound], for which, at human FVIIa, the Ki was determined as 38 nM and the “Ki(HK1)/Ki(FVIIa)” value was found to be 87. The same compound displayed a Ki on tissue kallikrein (HK1) of 3330 nM.

For `CCS(=O)(=O)c1ccc2cc1CNC(=O)[C@H](Nc1ccc3c(N)nccc3c1)c1ccc(cc1)CCOC(=O)N2` [Comparator 2, reference compound], the Ki was 11 nM on human FVIIa and 110 nM at tissue kallikrein (HK1). In addition, at human FVIIa, the “Ki(HK1)/Ki(FVIIa)” value is 10.

Consider `CCS(=O)(=O)c1ccc2cc1CNC(=O)[C@H](Nc1ccc3c(N)nccc3c1)c1cc(C)c(c(C)c1)CCOC(=O)N2` [Comparator 3, reference compound], for which, on human FVIIa, the inhibition constant (Ki) is 1.1 nM and the “Ki(HK1)/Ki(FVIIa)” value is listed as 64. The same compound came in with a Ki at tissue kallikrein (HK1) of 70 nM.

Regarding `C[C@H]1COC(=O)Nc2cccc(c2)CNC(=O)C(Nc2ccc3c(N)nccc3c2)c2ccc1cc2` (stereo partly drawn) [Comparator 4, reference compound], the Ki at human FVIIa is more than 140 nM.

Consider `Cc1cc2cc(C)c1CC(O)CC(=O)Nc1ccc(S(=O)(=O)C3CC3)c(c1)CN(C)C(=O)[C@@H]2Nc1ccc2c(N)ncc(F)c2c1.O=C(O)C(F)(F)F` (stereo partly drawn) [Example 2, (2R)-2-[(1-Amino-4-fluoroisoquinolin-6-yl)amino]-7-(cyclopropanesulfonyl)-14-hydroxy-4,17,20-trimethyl-4,11-diazatricyclo[14.2.2.1^6,10]henicosa-1(18),6,8,10 (21),16,19-hexaene-3,12-dione; trifluoroacetic acid], for which, at human FVIIa, the Ki amounted to 2.3 nM and the “Ki(HK1)/Ki(FVIIa)” value is given as 704. Further, the affinity at tissue kallikrein (HK1) corresponds to a Ki of 1620 nM.

Turning to `CCS(=O)(=O)c1ccc2cc1CN(C)C(=O)[C@H](Nc1ccc3c(N)ncc(F)c3c1)c1ccc(c(C)c1)[C@@H](C)COC(=O)N2.O=C(O)C(F)(F)F` [Example 3, (2R,15R)-2-[(1-Amino-4-fluoroisoquinolin-6-yl)amino]-7-(ethanesulfonyl)-4,15,17-trimethyl-13-oxa-4,11-diazatricyclo[14.2.2.1^6,10]henicosa-1(18),6,8,10 (21),16,19-hexaene-3,12-dione; trifluoroacetic acid], at human FVIIa, the Ki was 2.3 nM and the “Ki(HK1)/Ki(FVIIa)” value was 117. At tissue kallikrein (HK1), the inhibition constant (Ki) was 270 nM.

With `CCN(Cc1nccs1)C(=O)c1ccc2cc1CN(C)C(=O)[C@H](Nc1ccc3c(N)nccc3c1)c1cc(C)c(c(C)c1)C(F)(F)COC(=O)N2.O=C(O)C(F)(F)F` [Example 4, (2R)-2-[(1-Aminoisoquinolin-6-yl)amino]-N-ethyl-15,15-difluoro-4,17,20-trimethyl-3,12-dioxo-N-(1,3-thiazol-2-ylmethyl)-13-oxa-4,11-diazatricyclo[14.2.2.1^6,10]henicosa-1(18),6,8,10 (21),16,19-hexaene-7-carboxamide; trifluoroacetic acid], the Ki at tissue kallikrein (HK1) came to 300 nM.

For `Cc1cc2cc(C)c1C(F)(F)COC(=O)Nc1ccc(S(=O)(=O)C3CC3)c(c1)CN(C)C(=O)[C@@H]2Nc1ccc2c(N)nccc2c1.O=C(O)C(F)(F)F` [Example 5, (2R)-2-[(1-Aminoisoquinolin-6-yl)amino]-7-(cyclopropanesulfonyl)-15,15-difluoro-4,17,20-trimethyl-13-oxa-4,11-diazatricyclo[14.2.2.1^6,10]henicosa-1(18),6,8,10 (21),16,19-hexaene-3,12-dione; trifluoroacetic acid], on human FVIIa, the Ki is 2 nM and the “Ki(HK1)/Ki(FVIIa)” value is recorded as 145. Besides, affinity at tissue kallikrein (HK1) was put at a Ki of 290 nM.

`COC[C@H](C)S(=O)(=O)c1ccc2cc1CN(C)C(=O)[C@H](Nc1ccc3c(N)ncc(F)c3c1)c1ccc(c(C)c1)[C@@H](C)COC(=O)N2.O=C(O)C(F)(F)F` [Example 6, (2R,15R)-2-[(1-Amino-4-fluoroisoquinolin-6-yl)amino]-7-[(2S)-1-methoxypropane-2-sulfonyl]-4,15,17-trimethyl-13-oxa-4,11-diazatricyclo[14.2.2.1^6,10]henicosa-1(18),6,8,10 (21),16,19-hexaene-3,12-dione; trifluoroacetic acid]: at human FVIIa, the Ki was 1.8 nM and the “Ki(HK1)/Ki(FVIIa)” value is recorded as 306. For the same compound, the inhibitory constant (Ki) at tissue kallikrein (HK1) turned out to be 550 nM.

With `Cc1cc2ccc1[C@@H](C)COC(=O)Nc1ccc(C(=O)N3CCC3)c(c1)CN(C)C(=O)[C@@H]2Nc1ccc2c(N)nccc2c1.O=C(O)C(F)(F)F` [Example 7, (2R,15R)-2-[(1-Aminoisoquinolin-6-yl)amino]-7-(azetidine-1-carbonyl)-4,15,17-trimethyl-13-oxa-4,11-diazatricyclo[14.2.2.16,10]henicosa-1(18),6,8,10 (21),16,19-hexaene-3,12-dione; trifluoroacetic acid], at human FVIIa, the Ki was found to be 1.2 nM and the “Ki(HK1)/Ki(FVIIa)” value is 525. The Ki at tissue kallikrein (HK1) turned out to be 630 nM.

On to `Cc1cc2ccc1[C@@H](C)COC(=O)Nc1ccc(S(=O)(=O)C(C)C)c(c1)CN(C)C(=O)[C@@H]2Nc1ccc2c(N)ncc(F)c2c1.O=C(O)C(F)(F)F` [Example 8, (2R,15R)-2-[(1-Amino-4-fluoroisoquinolin-6-yl)amino]-4,15,17-trimethyl-7-(propane-2-sulfonyl)-13-oxa-4,11-diazatricyclo[14.2.2.1^6,10]henicosa-1(18),6,8,10 (21),16,19-hexaene-3,12-dione; trifluoroacetic acid], for which, on human FVIIa, the Ki was determined as 1.2 nM and the “Ki(HK1)/Ki(FVIIa)” value came to 583. For the same compound, at tissue kallikrein (HK1), the Ki amounted to 700 nM.

`Cc1cc2ccc1[C@@H](CF)COC(=O)Nc1ccc(S(=O)(=O)C3CC3)c(c1)CN(C)C(=O)[C@@H]2Nc1ccc2c(N)nccc2c1.O=C(O)C(F)(F)F` [Example 24, (2R,15R)-2-[(1-Aminoisoquinolin-6-yl)amino]-7-(cyclopropanesulfonyl)-15-(fluoromethyl)-4,17-dimethyl-13-oxa-4,11-diazatricyclo[14.2.2.1^6,10]henicosa-1(18),6,8,10 (21),16,19-hexaene-3,12-dione; trifluoroacetic acid]: the Ki at tissue kallikrein (HK1) stood at 200 nM.
